Values quoted from earlier work as cited in article PMC9159073 (Journal of medicinal chemistry, 2022).
Where two headings read alike, the source gives them in different places.

What was measured:
[1] = test system: SARS-CoV-2 PL^pro; conditions: increase in FluoZin-3 fluorescence
[2] = test system: SARS-CoV-2 PL^pro; conditions: for IC50: read-out: Enzymatic inhibition IC50; for Inhibition of SARS-CoV-2 PLpro: IC50 not quantified
[3] = test system: SARS-CoV-2 PL^pro
[4] = test system: SARS-CoV-2 PL^pro; remark: listed apart in the source
[5] = test system: SARS-CoV-2 PL^pro; conditions: read-out: IC50 (FP assay)
[6] = molecular target: SARS-CoV-2 PL^pro; conditions: read-out: KD (SPR)
[7] = test system: host DUBs and DUB-like proteases; conditions: 10 DUBs or DUB-like proteases
[8] = test system: SARS-CoV-2 M^pro; conditions: read-out: M^pro IC50; no reducing agent in the Mpro assay
[9] = test system: SARS-CoV-2 PL^pro; remark: listed apart in the source
[10] = test system: SARS-CoV-2
[11] = test system: SARS-CoV-2; conditions: for Antiviral effect in combination with hydroxychloroquine: combined with hydroxychloroquine; for Antiviral activity in combination with remdesivir: combined with remdesivir
[12] = test system: SARS-CoV-2 nsp14
[13] = test system: SARS-CoV-2 nsp13
[14] = test system: SARS-CoV-2; conditions: read-out: Antiviral EC50; A549-hACE2 cells, virus yield reduction assay
[15] = test system: SARS-CoV-2 PL^pro; conditions: read-out: IC50, deISGylating activity of PLpro; ISG15-Rh substrate
[16] = test system: bacteria
[17] = test system: mammalian cell culture
[18] = test system: SARS-CoV-2 PL^pro; conditions: read-out: IC50, mass spectrometry assay; nsp 2/3 substrate
[19] = test system: SARS-CoV-2; conditions: read-out: Antiviral EC50
[20] = test system: SARS-CoV PL^pro
[21] = FRET assay, hit validation study
[22] = SARS-CoV-2 infected Vero E6 cells
[23] = read-out: Antiviral EC50 (qRTPCR), Vero E6 cells, qRT-PCR assay
[24] = read-out: IC50, deubiquitinating activity of PLpro

c1ccc2sc(SSc3nc4ccccc4s3)nc2c1 [2,2’ -dithiobis(benzothiazole) (70), 2,2’ -dithiobis(benzothiazole)]
Zinc ejection from PLpro [1]: eject zinc

c1ccc(SSc2ccccn2)nc1 [2,2’ -dithiodipyridine (69), 2,2’ -dithiodipyridine]
Zinc ejection from PLpro [1]: eject zinc

O=C(O)c1cc(SSc2ccc([N+](=O)[O-])c(C(=O)O)c2)ccc1[N+](=O)[O-] [5,5’ -dithiobis(2-nitrobenzoic acid)]
Zinc ejection from PLpro [1]: eject zinc

Nc1nc2[nH]cnc2c(=S)[nH]1 [6-TG (26), 6-thioguanine]
IC50 [2, 21]: > 50 µM | Intracellular PLpro inhibition in the FlipGFP assay [3]: did not inhibit | Binding to PLpro in the thermal shift assay [4]: no binding

Cc1ccc(NC2=CC(=O)c3sc(C)nc3C2=O)cc1 [Cdk4 inhibitor III (34)]
IC50 ([2]; HTS): 0.39 µM

Oc1c(Cl)cc(Cl)c2cccnc12 [Chloroxine (37), chloroxine]
IC50 [5]: 7.24 µM | Binding to PLpro in the biolayer interferometry and thermal shift assays [4]: showed binding

C[C@H](c1cccc2ccccc12)N1CCC(C(=O)NCc2cc(F)cc(NC(=O)N3CCN(C)CC3)c2)CC1 [Compound 8]
Kd [6]: 2.6 µM | IC50 [2]: 0.44 µM | Inhibition of a panel of host DUBs and DUB-like proteases [7]: did not show significant inhibition

CC1(C)OC2=C(C(=O)C(=O)c3ccccc32)C1n1cc(-c2ccccc2)nn1 (stereo not shown) [Compound 38]
IC50 ([2]; 0.1 mM DTT in the PLpro assay): 1.7 µM

CN(Cc1cn(C2C3=C(OC2(C)C)c2ccccc2C(=O)C3=O)nn1)C1=CC(=O)c2ccccc2C1=O (stereo not shown) [Compound 39]
IC50 ([2]; 0.1 mM DTT in the PLpro assay): 2.2 µM

CN(Cc1cn(C2C3=C(OC2(C)C)c2ccccc2C(=O)C3=O)nn1)C1=C(Br)C(=O)c2ccccc2C1=O (stereo not shown) [Compound 40]
IC50 [8]: 66 µM | IC50 ([2]; 0.1 mM DTT in the PLpro assay): 3.1 µM

COC(=O)/C=C/C(=O)NNC(=O)CCc1ccc(NC(C)=O)cc1C(=O)N[C@H](C)c1cccc2ccccc12 [Compound 47]
IC50 ([2]; covalent inhibitors): 0.23 µM | Antiviral EC50 [10, 22]: insignificant cytoprotective effects

C#CC(=O)NNC(=O)CCc1ccccc1C(=O)N[C@H](C)c1cccc2ccccc12 [Compound 48]
IC50 ([2]; covalent inhibitors): 0.098 µM | Antiviral EC50 [10, 22]: cytotoxic

C[C@@H](NC(=O)c1ccccc1CCC(=O)NNC(=O)CCl)c1cccc2ccccc12 [Compound 49]
IC50 ([2]; covalent inhibitors): 5.4 µM

C[C@@H](NC(=O)c1ccccc1CCC(=O)NNC(=O)CC#N)c1cccc2ccccc12 [Compound 50]
IC50 ([2]; covalent inhibitors): 8 µM

C[C@@H](NC(=O)c1ccccc1CCC(=O)NNC(=O)/C(C#N)=C/C1CC1)c1cccc2ccccc12 [Compound 51]
IC50 ([2]; covalent inhibitors): > 200 µM

CCN(CC)C(=S)SSC(=S)N(CC)CC [Disulfiram (67), disulfiram]
Antiviral effect in combination with hydroxychloroquine [11]: synergistic antiviral effect | Antiviral activity in combination with remdesivir [11]: synergistic | Zinc ejection from PLpro [1]: eject zinc | Inhibition of nsp14 exoribonuclease activity [12]: inhibit | Inhibition of nsp13 ATPase activity [13]: inhibit

O=c1c2ccccc2[se]n1-c1ccccc1 [Ebselen (55), ebselen]
Antiviral effect in combination with hydroxychloroquine [11]: synergistic antiviral effect | Antiviral activity in combination with remdesivir [11]: synergistic | Zinc ejection from PLpro [1]: eject zinc | Inhibition of nsp14 exoribonuclease activity [12]: inhibit | Inhibition of nsp13 ATPase activity [13]: inhibit

Cc1ccc(N)cc1C(=O)N[C@H](C)c1cccc2ccccc12 [GRL0617 (4), GRL0617]
EC50 [14]: > 20 µM

O=Cc1ccc(O)cc1 [HBA (22), 4-hydroxybenzaldehyde]
IC50 [15]: 3.99 ± 1.33 µM | Antiviral EC50 (qRTPCR) ([10]; Vero E6 cells, qRT-PCR assay): not conclusive

COC(=O)c1ccc(O)c(O)c1 [HE9 (20), methyl 3,4-dihydroxybenzoate]
EC50 ([10]; read-out: Antiviral EC50 (CPE), cytopathic effect (CPE) assay): 10.4 µM | EC50 [10, 23]: 0.13 µM

C[C@H](c1ccccc1Cl)N(C)Cc1cc(O)ccc1Cl [Jun9-13-9 (11)]
IC50 ([2]; FRET-based enzymatic assay): 6.67 µM

CC(C)C(=O)OC[C@H]1O[C@@H](n2ccc(NO)nc2=O)[C@H](O)[C@@H]1O [Molnupiravir (2), molnupiravir]
Ames test [16]: positive

O=c1nc(NO)ccn1[C@@H]1O[C@H](CO)[C@@H](O)[C@H]1O [NHC, β-d-N^4-hydroxycytidine]
Host mutational activity [17]: displayed host mutational activity

O=C1c2ccccc2-c2nc3nnnn3nc21 [PKK1/Akt/Flt dual pathway inhibitor (32)]
IC50 ([2]; HTS): 0.26 µM

Cc1cc2nc3c(=O)[nH]c(=O)nc-3n(C)c2cc1C=O [Ro 08–2750 (33)]
IC50 ([2]; HTS): 0.53 µM

COCC[n+]1c2c(n(Cc3cnccn3)c1C)C(=O)c1ccccc1C2=O.[Br-] [YM155 (27), YM155]
IC50 [2, 21]: 20.1 µM | IC50 ([2]; FRET-based enzymatic assay, Arg-Leu-Arg-Gly-Gly-AMC substrate, 50 mM HEPES, pH 7.5, 2 mM DTT): 2.47 ± 0.46 µM | IC50 [18]: > 50 µM | Intracellular PLpro inhibition in the FlipGFP assay [3]: not conclusive due to cell cytotoxicity

OCCc1ccc(O)cc1 [YRL (21), 4-(2-hydroxyethyl)phenol]
IC50 [15]: 6.68 ± 1.2 µM | Antiviral EC50 (CPE) ([10]; cytopathic effect (CPE) assay): failed to show inhibition | EC50 [10, 23]: 1 µM

O=C1c2c(O)cccc2[C@H]([C@@H]2O[C@H](CO)[C@@H](O)[C@H](O)[C@H]2O)c2cc(CO)cc(O)c21 [aloin A (42), aloin A]
IC50 [9, 24]: 15.7 µM | IC50 [2]: 13.2 µM

O=C1c2c(O)cccc2[C@@H]([C@@H]2O[C@H](CO)[C@@H](O)[C@H](O)[C@H]2O)c2cc(CO)cc(O)c21 [aloin B (43), aloin B]
IC50 [9, 24]: 17.5 µM | IC50 [2]: 16.1 µM

C[C@H]1COC2=C1C(=O)C(=O)c1c2ccc2c1CCCC2(C)C [cryptotanshinone (28), cryptotanshinone]
EC50 [19]: > 200 µM | Intracellular PLpro inhibition in the FlipGFP assay [3]: not conclusive due to cell cytotoxicity

Cc1cccc2c3c(ccc12)C1=C(C(=O)C3=O)[C@@H](C)CO1 [dihydrotanshinone I (30), dihydrotanshinone I]
IC50 [2, 21]: 33 µM | IC50 ([2]; HTS): 0.59 µM

CCC(CC)COC(=O)[C@H](C)N[P@](=O)(OC[C@H]1O[C@@](C#N)(c2ccc3c(N)ncnn23)[C@H](O)[C@@H]1O)Oc1ccccc1 [remdesivir (1), remdesivir]
EC50 ([10]; read-out: Antiviral EC50, SARS-CoV-2 infected Vero E6 cells): 0.74 µM

Cc1coc2c1C(=O)C(=O)c1c-2ccc2c1CCCC2(C)C [tanshinone IIA (31), tanshinone IIA]
EC50 [19]: > 200 µM

CC1(C)CCC2=C(O1)c1ccccc1C(=O)C2=O [β-lapachone (35), β-lapachone]
IC50 ([2]; HTS): 0.61 µM

Ac-Abu(Bth)-Dap-Gly-Gly-VME [VIR250 (44)]
Inhibition of SARS-CoV-2 PLpro [2]: dose-dependent inhibition | Inhibition of SARS-CoV PLpro [20]: dose-dependent inhibition

Ac-hTyr-Dap-Gly-Gly-VME [VIR251 (45)]
Inhibition of SARS-CoV-2 PLpro [2]: dose-dependent inhibition | Inhibition of SARS-CoV PLpro [20]: dose-dependent inhibition
